Measurements reported in ChEMBL document CHEMBL2157907, “Optimization of anti-Trypanosoma cruzi oxadiazoles leads to identification of compounds with efficacy in infected mice” (Bioorg Med Chem, 2012).
Activity calls are given as the source filed them. The calls are words filed in the database; no cut-off is given here.

Experiments:
Trypanosoma cruzi [1] = assay: Antitrypanosomal activity against epimastigotes of Trypanosoma cruzi Y after 5 days; format: functional, organism-based; conditions: 120 h
Trypanosoma cruzi [2] = assay: Induction of kinetoplast enlargement in trypomastigotes of Trypanosoma cruzi Y at 9.5 uM after 24 hrs by […] electron microscopic analysis; format: functional, organism-based
Trypanosoma cruzi [3] = assay: Antitrypanosomal activity against trypomastigotes of Trypanosoma cruzi Y infected in BALB/c mouse assessed as reduction of parasite level in blood at 50 mg/kg, po administered after 5 days of postinfection qd for 5 days; format: functional, organism-based; set-up: dose 50 mg/kg
Trypanosoma cruzi [4] = assay: Induction of mitochondria degeneration in trypomastigotes of Trypanosoma cruzi Y at 9.5 uM after 24 hrs by […] electron microscopic analysis; format: functional, organism-based
[5] = molecular target: Cruzipain (Trypanosoma cruzi) (UniProt P25779); assay: Inhibition of Trypanosoma cruzi cruzain using Z-Phe-Arg-aminomethylcoumarin as substrate at 100 uM after 10 mins
Chain of Cruzipain (Trypanosoma cruzi) (P25779 123-467 limits assumed): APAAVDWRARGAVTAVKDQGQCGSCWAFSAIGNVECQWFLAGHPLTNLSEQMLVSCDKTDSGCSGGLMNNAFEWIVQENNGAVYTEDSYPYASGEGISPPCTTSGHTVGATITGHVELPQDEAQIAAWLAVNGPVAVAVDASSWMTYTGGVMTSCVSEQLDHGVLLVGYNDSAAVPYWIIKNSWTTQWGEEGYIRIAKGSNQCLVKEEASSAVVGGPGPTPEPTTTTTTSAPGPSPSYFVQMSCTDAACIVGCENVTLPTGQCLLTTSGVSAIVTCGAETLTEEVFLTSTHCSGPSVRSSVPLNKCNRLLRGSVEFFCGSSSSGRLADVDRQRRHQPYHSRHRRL

Trypanosoma cruzi [6] = assay: Induction of endoplasmic reticulum degeneration in trypomastigotes of Trypanosoma cruzi Y at 9.5 uM after 24 hrs by […] electron microscopic analysis; format: functional, organism-based
Trypanosoma cruzi [7] = assay: Antitrypanosomal activity against trypomastigotes of Trypanosoma cruzi Y in BALB/c mouse peritoneal exudate macrophages assessed as reduction of parasite infection to cells at 10 ug/ml treated simultaneously with parasite measured after 2 hrs; format: functional, organism-based
Trypanosoma cruzi [8] = assay: Antitrypanosomal activity against trypomastigotes of Trypanosoma cruzi Y infected in BALB/c mouse peritoneal exudate macrophages assessed as reduction of parasite level at 10 ug/ml after 4 days; format: functional, organism-based
Trypanosoma cruzi [9] = assay: Induction of golgi apparatus degeneration in trypomastigotes of Trypanosoma cruzi Y at 9.5 uM after 24 hrs by […] electron microscopic analysis; format: functional, organism-based
Trypanosoma cruzi [10] = assay: Induction of ultrastructural changes in trypomastigotes of Trypanosoma cruzi Y assessed as plasma membrane protrusions at 30 uM after 24 hrs by scanning electron microscopic analysis; format: functional
Trypanosoma cruzi [11] = assay: Antitrypanosomal activity against trypomastigotes of Trypanosoma cruzi Y infected in rhesus monkey LLC-MK2 cells assessed parasite viability after 24 hrs; format: functional, organism-based; conditions: LLC-MK2, 24 h
[12] = Cytotoxicity against BALB/c mouse splenocytes after 24 hrs by [3H]-thymidine incorporation assay; format: cell-based, Splenocyte; conditions: read-out: LC50
Cruzipain = Cruzipain (Trypanosoma cruzi, UniProt P25779); assay: Inhibition of Trypanosoma cruzi cruzain using Z-Phe-Arg-aminomethylcoumarin as substrate after 10 mins
Chain of Cruzipain (P25779 whole entry): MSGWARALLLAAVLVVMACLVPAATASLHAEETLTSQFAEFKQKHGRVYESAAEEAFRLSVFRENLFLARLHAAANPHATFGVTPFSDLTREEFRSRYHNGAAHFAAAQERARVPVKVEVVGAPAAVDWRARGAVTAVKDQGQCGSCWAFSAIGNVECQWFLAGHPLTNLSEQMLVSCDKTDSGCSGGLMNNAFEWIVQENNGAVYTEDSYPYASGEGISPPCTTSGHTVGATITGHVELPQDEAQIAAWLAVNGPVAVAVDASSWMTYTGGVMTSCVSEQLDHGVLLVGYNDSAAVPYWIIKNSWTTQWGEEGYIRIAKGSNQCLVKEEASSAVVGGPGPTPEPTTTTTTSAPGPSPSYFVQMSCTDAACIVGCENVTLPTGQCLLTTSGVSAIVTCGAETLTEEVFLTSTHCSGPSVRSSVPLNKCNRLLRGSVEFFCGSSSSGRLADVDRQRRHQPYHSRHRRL

In the case of `O=C(N/N=C/c1ccc2c(c1)OCO2)c1nc(-c2ccc(F)cc2)no1`, the IC50 (Trypanosoma cruzi [1]) is reported as 12.2 µM, the Activity (Trypanosoma cruzi [2]) is reported as “Active” and the Activity (Trypanosoma cruzi [3]) is reported as “inactive”. The Activity (Trypanosoma cruzi [4]) was “Active”, the inhibition [5] was 34% and the Activity (Trypanosoma cruzi [6]) was “Active”. For the same molecule, the Activity (Trypanosoma cruzi [7]) was “Active”, the Activity (Trypanosoma cruzi [8]) was “Active” and the Activity (Trypanosoma cruzi [9]) was “Active”. It also gave an Activity (Trypanosoma cruzi [10]) of 80%, an IC50 (Trypanosoma cruzi [11]) of 9.5 µM and a CC50 at 24 h [12] of over 100 µg/mL.

With `O=C(N/N=C/c1ccc2c(c1)OCO2)c1nc(-c2ccc([N+](=O)[O-])cc2)no1` the CC50 at 24 h [12] was over 100 µg/mL.

Molecule `COc1cc(/C=N/NC(=O)c2nc(-c3ccc(Br)cc3)no2)ccc1O` has an IC50 (Cruzipain) of 0.2 µM, an inhibition [5] of 100% and a CC50 at 24 h [12] of over 100 µg/mL.

`O=C(N/N=C/c1ccc2c(c1)OCO2)c1nc(-c2ccc(O)cc2)no1` showed an inhibition [5] of 17% and a CC50 at 24 h [12] of over 100 µg/mL.

`CN(C)c1ccc(C(=C2C=CC(=[N+](C)C)C=C2)c2ccc(N(C)C)cc2)cc1` [GENTIAN VIOLET] gave a CC50 at 24 h [12] of 0.11 µg/mL.
